Values belong to the compound of their own block, whether it stands above or below them.
Key:
[1] = target: DNA (cytosine-5)-methyltransferase 1 (Homo sapiens, UniProt P26358); assay: Inhibition of DNMT1 (unknown origin)
[2] = target: T1, Histone acetyltransferase type B catalytic subunit (Homo sapiens, UniProt O14929); assay: Inhibition of HAT1 (unknown origin)
T1 sequence (O14929 whole entry): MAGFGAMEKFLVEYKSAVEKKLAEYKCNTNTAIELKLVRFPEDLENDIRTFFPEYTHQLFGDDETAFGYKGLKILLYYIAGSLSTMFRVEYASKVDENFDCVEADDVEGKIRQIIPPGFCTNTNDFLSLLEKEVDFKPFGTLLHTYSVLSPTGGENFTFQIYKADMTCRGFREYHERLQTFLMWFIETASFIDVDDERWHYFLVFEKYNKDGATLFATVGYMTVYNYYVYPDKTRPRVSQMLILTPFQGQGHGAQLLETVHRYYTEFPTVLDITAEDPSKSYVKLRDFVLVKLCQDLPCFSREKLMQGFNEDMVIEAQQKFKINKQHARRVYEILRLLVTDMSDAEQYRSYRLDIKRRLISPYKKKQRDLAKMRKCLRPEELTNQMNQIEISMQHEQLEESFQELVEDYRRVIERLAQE

[3] = target: ATP-dependent translocase ABCB1 (Homo sapiens, UniProt P08183); assay: Inhibition of MDR1 (unknown origin)
[4] = target: Cyclin-dependent kinase 4 (Homo sapiens, UniProt P11802); assay: Inhibition of CDK4 (unknown origin)
[5] = target: Nuclear factor NF-kappa-B complex (Homo sapiens, UniProt P19838+Q00653+Q04206); assay: Inhibition of NF-kappaB (unknown origin); assay type: protein-complex assay
[6] = target: Cyclin-dependent kinase 9 (Homo sapiens, UniProt P50750); assay: Inhibition of CDK9 (unknown origin)
[7] = target: Cyclin-dependent kinase 1 (Homo sapiens, UniProt P06493); assay: Inhibition of CDK1 (unknown origin)
[8] = target: Cyclin-dependent kinase 6 (Homo sapiens, UniProt Q00534); assay: Inhibition of CDK6 (unknown origin)
Sequence of Cyclin-dependent kinase 6 (Q00534 whole entry): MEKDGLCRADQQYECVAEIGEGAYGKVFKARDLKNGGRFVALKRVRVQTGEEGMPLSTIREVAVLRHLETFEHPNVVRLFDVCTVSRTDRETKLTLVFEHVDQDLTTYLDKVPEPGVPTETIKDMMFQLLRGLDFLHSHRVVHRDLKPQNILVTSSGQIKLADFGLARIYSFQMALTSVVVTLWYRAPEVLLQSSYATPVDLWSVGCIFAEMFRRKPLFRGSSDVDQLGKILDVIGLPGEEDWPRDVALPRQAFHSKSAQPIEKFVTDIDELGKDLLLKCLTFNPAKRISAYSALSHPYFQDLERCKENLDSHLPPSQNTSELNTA

Sequence of Nuclear factor NF-kappa-B complex (P19838 1-433 limits assumed): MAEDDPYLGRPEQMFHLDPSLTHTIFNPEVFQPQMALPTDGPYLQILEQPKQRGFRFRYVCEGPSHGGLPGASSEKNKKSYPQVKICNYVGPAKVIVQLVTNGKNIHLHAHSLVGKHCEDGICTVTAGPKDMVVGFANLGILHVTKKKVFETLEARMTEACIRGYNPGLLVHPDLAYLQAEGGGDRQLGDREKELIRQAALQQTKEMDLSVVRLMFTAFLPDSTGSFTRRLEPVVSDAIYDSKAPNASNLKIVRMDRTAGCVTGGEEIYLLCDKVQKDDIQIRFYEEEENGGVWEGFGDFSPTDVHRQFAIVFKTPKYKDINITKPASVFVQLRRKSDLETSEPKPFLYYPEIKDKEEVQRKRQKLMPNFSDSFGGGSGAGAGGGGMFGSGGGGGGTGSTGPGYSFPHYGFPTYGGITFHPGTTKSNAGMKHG
Sequence of Nuclear factor NF-kappa-B complex (Q00653 1-454 limits assumed): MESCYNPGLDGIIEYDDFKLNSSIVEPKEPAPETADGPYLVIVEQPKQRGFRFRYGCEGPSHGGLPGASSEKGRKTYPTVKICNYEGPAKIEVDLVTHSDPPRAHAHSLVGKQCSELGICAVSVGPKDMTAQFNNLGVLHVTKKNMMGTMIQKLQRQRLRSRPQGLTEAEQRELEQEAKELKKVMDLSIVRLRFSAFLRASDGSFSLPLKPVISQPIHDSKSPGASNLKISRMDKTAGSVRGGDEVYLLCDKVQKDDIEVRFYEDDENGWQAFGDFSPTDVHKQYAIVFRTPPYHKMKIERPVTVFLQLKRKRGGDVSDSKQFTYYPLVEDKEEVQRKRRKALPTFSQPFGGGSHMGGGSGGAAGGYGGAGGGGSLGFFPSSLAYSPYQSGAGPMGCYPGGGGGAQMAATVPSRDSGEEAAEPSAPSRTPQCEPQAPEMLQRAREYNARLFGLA
Sequence of Nuclear factor NF-kappa-B complex (Q04206 whole entry): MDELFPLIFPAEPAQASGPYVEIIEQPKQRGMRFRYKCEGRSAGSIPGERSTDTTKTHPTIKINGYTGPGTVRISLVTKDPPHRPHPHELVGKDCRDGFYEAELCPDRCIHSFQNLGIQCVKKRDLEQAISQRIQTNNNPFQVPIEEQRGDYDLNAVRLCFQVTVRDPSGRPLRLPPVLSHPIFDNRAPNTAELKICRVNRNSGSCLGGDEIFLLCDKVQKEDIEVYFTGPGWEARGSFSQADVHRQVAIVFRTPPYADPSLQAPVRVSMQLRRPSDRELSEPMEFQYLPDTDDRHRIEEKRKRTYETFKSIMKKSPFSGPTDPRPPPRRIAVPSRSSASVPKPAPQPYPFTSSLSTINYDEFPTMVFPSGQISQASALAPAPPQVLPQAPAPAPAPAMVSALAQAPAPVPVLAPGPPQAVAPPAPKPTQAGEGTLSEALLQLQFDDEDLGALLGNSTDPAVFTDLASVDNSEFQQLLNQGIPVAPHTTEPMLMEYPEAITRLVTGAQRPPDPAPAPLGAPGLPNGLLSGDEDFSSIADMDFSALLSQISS
Sequence of DNA (cytosine-5)-methyltransferase 1 (P26358 whole entry): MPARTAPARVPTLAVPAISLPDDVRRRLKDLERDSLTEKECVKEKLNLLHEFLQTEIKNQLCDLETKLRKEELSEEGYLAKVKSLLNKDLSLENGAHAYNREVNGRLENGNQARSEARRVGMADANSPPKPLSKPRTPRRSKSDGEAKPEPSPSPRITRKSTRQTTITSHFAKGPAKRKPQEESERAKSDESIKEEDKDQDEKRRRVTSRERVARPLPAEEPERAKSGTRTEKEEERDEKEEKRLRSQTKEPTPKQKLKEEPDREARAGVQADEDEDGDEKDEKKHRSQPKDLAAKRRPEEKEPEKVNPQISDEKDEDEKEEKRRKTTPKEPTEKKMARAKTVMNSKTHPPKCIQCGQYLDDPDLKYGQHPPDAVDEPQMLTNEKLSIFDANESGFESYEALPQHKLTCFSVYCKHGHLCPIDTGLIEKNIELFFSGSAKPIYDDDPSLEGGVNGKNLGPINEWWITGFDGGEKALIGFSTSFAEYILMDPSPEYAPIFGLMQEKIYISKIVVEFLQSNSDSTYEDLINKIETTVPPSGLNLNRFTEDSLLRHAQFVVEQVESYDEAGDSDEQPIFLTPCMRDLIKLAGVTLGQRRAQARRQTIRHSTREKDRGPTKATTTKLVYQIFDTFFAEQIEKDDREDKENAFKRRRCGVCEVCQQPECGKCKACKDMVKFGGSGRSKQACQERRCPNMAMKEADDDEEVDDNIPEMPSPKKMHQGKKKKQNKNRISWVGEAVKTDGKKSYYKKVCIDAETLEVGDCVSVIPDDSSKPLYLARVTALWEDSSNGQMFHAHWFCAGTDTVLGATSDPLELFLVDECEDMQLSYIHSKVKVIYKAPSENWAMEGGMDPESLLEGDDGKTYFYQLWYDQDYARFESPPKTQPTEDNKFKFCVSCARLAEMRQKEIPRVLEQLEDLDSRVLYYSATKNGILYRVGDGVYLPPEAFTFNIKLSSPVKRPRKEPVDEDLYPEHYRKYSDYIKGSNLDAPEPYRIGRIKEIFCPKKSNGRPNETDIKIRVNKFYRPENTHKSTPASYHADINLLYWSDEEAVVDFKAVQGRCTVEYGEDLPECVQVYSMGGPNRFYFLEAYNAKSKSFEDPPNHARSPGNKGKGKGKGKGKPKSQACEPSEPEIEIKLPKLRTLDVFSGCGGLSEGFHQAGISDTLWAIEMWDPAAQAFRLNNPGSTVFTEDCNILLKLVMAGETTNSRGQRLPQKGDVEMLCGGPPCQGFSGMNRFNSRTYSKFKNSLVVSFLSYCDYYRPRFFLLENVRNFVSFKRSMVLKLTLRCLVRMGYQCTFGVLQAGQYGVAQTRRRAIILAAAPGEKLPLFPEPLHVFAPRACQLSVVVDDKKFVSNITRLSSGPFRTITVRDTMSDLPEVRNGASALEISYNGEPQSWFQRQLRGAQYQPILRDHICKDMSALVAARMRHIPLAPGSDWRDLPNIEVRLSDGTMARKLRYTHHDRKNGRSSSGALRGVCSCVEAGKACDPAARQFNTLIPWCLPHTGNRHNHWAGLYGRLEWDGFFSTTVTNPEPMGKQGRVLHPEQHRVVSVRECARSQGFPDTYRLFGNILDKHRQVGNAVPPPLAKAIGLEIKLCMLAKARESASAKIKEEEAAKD
Sequence of Cyclin-dependent kinase 9 (P50750 whole entry): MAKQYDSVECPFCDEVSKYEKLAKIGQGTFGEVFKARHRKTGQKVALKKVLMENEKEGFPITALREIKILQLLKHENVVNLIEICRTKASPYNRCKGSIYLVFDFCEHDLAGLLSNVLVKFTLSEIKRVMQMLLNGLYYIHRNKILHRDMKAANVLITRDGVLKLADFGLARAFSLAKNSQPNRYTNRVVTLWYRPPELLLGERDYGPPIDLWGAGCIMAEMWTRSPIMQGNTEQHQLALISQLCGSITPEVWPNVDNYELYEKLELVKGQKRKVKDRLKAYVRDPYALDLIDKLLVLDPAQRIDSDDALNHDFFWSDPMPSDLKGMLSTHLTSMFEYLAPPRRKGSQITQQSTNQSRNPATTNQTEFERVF
Sequence of ATP-dependent translocase ABCB1 (P08183 whole entry): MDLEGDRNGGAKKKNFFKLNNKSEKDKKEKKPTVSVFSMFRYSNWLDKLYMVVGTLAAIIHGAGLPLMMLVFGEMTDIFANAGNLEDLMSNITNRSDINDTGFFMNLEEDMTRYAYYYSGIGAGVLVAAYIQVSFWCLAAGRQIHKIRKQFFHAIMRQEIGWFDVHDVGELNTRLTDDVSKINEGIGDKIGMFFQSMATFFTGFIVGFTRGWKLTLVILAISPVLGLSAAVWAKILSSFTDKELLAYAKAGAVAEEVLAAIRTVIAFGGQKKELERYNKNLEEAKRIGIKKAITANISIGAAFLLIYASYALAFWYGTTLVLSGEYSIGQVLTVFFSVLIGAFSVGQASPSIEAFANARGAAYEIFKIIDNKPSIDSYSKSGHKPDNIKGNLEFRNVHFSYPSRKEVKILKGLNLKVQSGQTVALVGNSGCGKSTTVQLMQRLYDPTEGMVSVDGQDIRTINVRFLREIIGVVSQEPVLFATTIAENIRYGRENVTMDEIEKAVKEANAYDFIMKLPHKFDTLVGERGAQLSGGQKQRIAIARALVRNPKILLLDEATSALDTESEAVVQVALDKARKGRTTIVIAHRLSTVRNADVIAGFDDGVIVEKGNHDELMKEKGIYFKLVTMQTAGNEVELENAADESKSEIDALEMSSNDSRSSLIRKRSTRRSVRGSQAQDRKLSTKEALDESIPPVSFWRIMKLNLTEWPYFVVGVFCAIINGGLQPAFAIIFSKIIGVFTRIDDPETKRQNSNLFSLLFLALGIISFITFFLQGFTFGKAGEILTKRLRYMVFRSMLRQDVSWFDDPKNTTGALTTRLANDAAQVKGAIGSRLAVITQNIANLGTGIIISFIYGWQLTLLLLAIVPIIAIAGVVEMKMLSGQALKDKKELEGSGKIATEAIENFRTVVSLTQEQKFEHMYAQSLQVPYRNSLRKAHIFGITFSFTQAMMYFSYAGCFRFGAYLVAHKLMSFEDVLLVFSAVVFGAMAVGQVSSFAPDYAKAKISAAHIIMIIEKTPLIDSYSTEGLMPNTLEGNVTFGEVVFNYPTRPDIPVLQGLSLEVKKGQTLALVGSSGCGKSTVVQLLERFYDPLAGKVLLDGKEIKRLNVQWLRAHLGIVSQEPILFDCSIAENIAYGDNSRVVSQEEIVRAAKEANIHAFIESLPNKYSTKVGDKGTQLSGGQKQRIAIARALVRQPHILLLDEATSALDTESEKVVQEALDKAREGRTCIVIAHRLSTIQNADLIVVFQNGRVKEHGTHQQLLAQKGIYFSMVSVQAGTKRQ

IC50 [1]: ≤ 1000 nM
IC50 [2]: ≤ 1000 nM
IC50 [3]: ≤ 1000 nM
SMILES: COc1cc(/C=C/C(=O)CC(=O)/C=C/c2ccc(O)c(OC)c2)ccc1O [CURCUMIN]

IC50 [4]: 400 nM
SMILES: CN1CC[C@@H](c2c(O)cc(O)c3c(=O)cc(-c4ccc(C(F)(F)F)cc4Cl)oc23)[C@@H]1CO [VORUCICLIB]

IC50 [5]: ≤ 10 nM
SMILES: CC(C)C[C@H](NC(=O)[C@H](Cc1ccccc1)NC(=O)c1cnccn1)B(O)O [BORTEZOMIB]

IC50 [5]: 10000 nM
SMILES: O=C(O)c1cc(/N=N/c2ccc(S(=O)(=O)Nc3ccccn3)cc2)ccc1O [SULFASALAZINE]

IC50 [5]: ≤ 2000 nM
SMILES: O=C(Oc1ccccc1C(=O)O)c1ccccc1O [SALSALATE]

SMILES: CN1CC[C@H](c2c(OP(=O)(O)O)cc(O)c3c(=O)cc(-c4ccccc4Cl)oc23)[C@H](O)C1 [TP-1287]
IC50 [6]: 10 nM

IC50 [7]: 45 nM
SMILES: CNC(=O)c1nn(C)c2c1C(C)(C)Cc1cnc(Nc3ccc(N4CCN(C)CC4)cc3)nc1-2 [MILCICLIB]

IC50 [8]: 2.4 nM
SMILES: CC(C)c1c2cc(-c3nc(Nc4ccc(N5CCNCC5)cn4)ncc3F)ccc2nn1C [CULMERCICLIB]

IC50 [5]: 65.9 nM
SMILES: C[C@@H]1C[C@H]2[C@@H]3CCC4=CC(=O)C=C[C@]4(C)C3=CC[C@]2(C)[C@@]1(O)C(=O)CO [VAMOROLONE]

SMILES: CC(C)[C@]12O[C@H]1[C@@H]1O[C@]13[C@]1(O[C@H]1C[C@H]1C4=C(CC[C@@]13C)C(=O)OC4)[C@@H]2O [TRIPTOLIDE]
IC50 [5]: 10 nM
